Measurements: the supplement of paper PMC10307832

Tests used:
Assay in all cases: relative viability (nuclei count vs DMSO), 5 days (fraction); higher = more cells survive
[1] = compound: C(C(=O)C(=O)O)Br [Bromopyruvate] + Cc1nc(Nc2ncc(C(=O)Nc3c(C)cccc3Cl)s2)cc(N2CCN(CCO)CC2)n1 [Dasatinib] (partner 0.075 µM)
How it was run: (§1)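 Each reported value is a median over duplicate plates. It expresses relative viability: treated-well nuclei count divided by vehicle-well nuclei count. Lung cancer cell lines in 1536-well plates were dosed by pin tool a day after seeding, alone with one drug or with a fixed anchor-drug dose plus five library-drug doses (not always all listed) in √10 steps, and nuclei were counted after 5 days.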

Bicalutamide + Foretinib = compound: CC(O)(CS(=O)(=O)c1ccc(F)cc1)C(=O)Nc1ccc(C#N)c(C(F)(F)F)c1 [Bicalutamide] + COc1cc2c(Oc3ccc(NC(=O)C4(C(=O)Nc5ccc(F)cc5)CC4)cc3F)ccnc2cc1OCCCN1CCOCC1 [Foretinib] (partner 0.25 µM)
How it was run: as §1

[2] = compound: CC(O)(CS(=O)(=O)c1ccc(F)cc1)C(=O)Nc1ccc(C#N)c(C(F)(F)F)c1 [Bicalutamide] + C[C@@H](Oc1cc(-c2cnn(C3CCNCC3)c2)cnc1N)c1c(Cl)ccc(F)c1Cl [Crizotinib] (partner 1 µM)
How it was run: as §1

[3] = compound: C(C(=O)C(=O)O)Br [Bromopyruvate] + Cc1nc(NC(=O)N2CCC[C@H]2C(N)=O)sc1-c1ccnc(C(C)(C)C(F)(F)F)c1 [Alpelisib] (partner 2 µM)
How it was run: as §1

Cell Line | relative viability ([1]; first compound 1 µM) | relative viability ([1]; first compound 3.162 µM) | relative viability ([1]; first compound 10 µM) | relative viability ([1]; first compound 31.62 µM) | relative viability ([1]; first compound 100 µM) | relative viability (Bicalutamide + Foretinib; first compound 0.08 µM) | relative viability (Bicalutamide + Foretinib; first compound 0.253 µM) | relative viability (Bicalutamide + Foretinib; first compound 0.8 µM) | relative viability (Bicalutamide + Foretinib; first compound 2.53 µM) | relative viability ([2]; first compound 0.08 µM) | relative viability ([2]; first compound 0.253 µM) | relative viability ([2]; first compound 0.8 µM) | relative viability ([2]; first compound 2.53 µM) | relative viability ([3]; first compound 1 µM) | relative viability ([3]; first compound 3.162 µM) | relative viability ([3]; first compound 10 µM) | relative viability ([3]; first compound 31.62 µM) | relative viability ([3]; first compound 100 µM)
NCI-H1915 | 0.331 | 0.326 | 0.319 | 0.275 | 0.315 | 0.753 | 1.06 | 1.11 | 1.13 | 0.873 | 0.815 | 0.969 | 0.889 | 1.03 | 1.05 | 1.04 | 1.12 | 1.08
NCI-H1944 | 0.235 | 0.255 | 0.213 | 0.196 | 0.205 | 0.837 | 0.749 | 0.981 | 0.775 | 1.07 | 0.982 | 1.28 | 1.12 | 0.8 | 0.85 | 0.904 | 0.821 | 0.858
NCI-H1975 | 0.369 | 0.4 | 0.349 | 0.442 | 0.344 | 1.07 | 0.824 | 0.971 | 0.827 | 0.97 | 0.915 | 1.08 | 0.781 | 0.77 | 0.752 | 0.606 | 0.635 | 0.593
NCI-H1993 | 0.826 | 0.766 | 0.841 | 0.652 | 0.617 | 0.738 | 0.7 | 0.866 | 0.971 | – | 0.83 | 0.978 | 0.778 | 0.691 | 0.705 | 0.668 | 0.642 | 0.644
NCI-H2009 | 0.281 | 0.297 | 0.279 | 0.243 | 0.202 | 1.35 | 1.23 | 1.19 | 1.17 | 1.01 | 1.01 | 1.04 | 0.973 | 1.11 | 1.15 | 1.21 | 1.07 | 1.01
NCI-H2023 | 0.398 | 0.566 | 0.661 | 0.573 | 0.562 | 0.957 | 0.506 | 0.845 | 0.774 | 0.691 | 0.601 | 0.679 | 0.462 | 0.613 | 0.728 | 0.593 | 0.646 | 0.542
NCI-H2085 | 0.246 | 0.243 | 0.234 | 0.263 | 0.284 | 1.02 | 1.1 | 0.878 | 0.753 | 0.904 | 0.822 | 0.816 | 0.745 | 0.968 | 0.785 | 0.894 | 0.975 | 0.851
NCI-H2087 | 0.807 | 1 | 0.914 | 0.745 | 0.824 | 1.14 | 1.17 | 1.15 | 0.993 | 1 | 0.993 | 0.887 | 0.971 | 1.03 | 1.14 | 1.02 | 1.25 | 0.829
NCI-H2126 | 0.659 | 0.594 | 0.611 | 0.622 | 0.587 | 1.21 | 1.19 | 1.36 | 1.18 | 1.06 | 0.983 | 1.06 | 0.945 | 0.796 | 0.755 | 0.768 | 0.751 | 0.744
NCI-H2170 | 0.553 | 0.509 | 0.59 | 0.627 | 0.635 | 0.993 | 1 | 1.1 | 0.98 | 1.12 | 1.18 | 1.39 | 1.18 | 0.833 | 0.831 | 0.764 | 0.914 | 0.864
NCI-H2228 | 0.464 | 0.532 | 0.52 | 0.455 | 0.633 | 0.933 | 0.843 | 1 | 1.02 | 0.443 | 0.52 | 0.754 | 0.463 | 0.656 | 0.866 | 0.806 | 0.698 | 0.631
NCI-H2347 | 0.331 | 0.297 | 0.322 | 0.292 | 0.278 | 1.26 | 1.35 | 1.34 | 1.04 | 0.797 | 0.621 | 0.689 | 0.675 | 1.07 | 1.16 | 1.38 | 0.849 | 1.13
NCI-H2405 | 0.242 | 0.218 | 0.209 | 0.19 | 0.231 | 1.04 | 1.03 | 1.11 | 1.01 | 0.913 | 0.817 | 0.962 | 0.837 | 0.773 | 0.779 | 0.89 | 0.583 | 0.737
NCI-H3122 | 0.936 | 0.871 | 1.22 | 0.765 | 0.882 | 1.02 | 0.9 | 0.996 | 1.01 | 0.281 | 0.26 | 0.277 | 0.281 | 0.841 | 0.831 | 0.859 | 0.729 | 0.718
PC-3 [JPC-3] | 1.06 | 1.03 | 1.06 | 1.02 | 1.1 | 1.01 | 1.02 | 1.07 | 1.11 | 1.02 | 1.07 | 1.06 | 1.02 | 1.06 | 1.01 | 1.01 | 1.06 | 1.03
PC-14 | 0.307 | 0.328 | 0.284 | 0.272 | 0.191 | 0.951 | 0.905 | 1.03 | 0.965 | 0.958 | 0.972 | 0.899 | 0.904 | 1.02 | 1.01 | 0.93 | 0.966 | 0.964
RERF-LC-KJ | 0.882 | 0.797 | 1.04 | 0.878 | 0.73 | 0.814 | 0.927 | 1.04 | 0.889 | 0.874 | 0.849 | 0.872 | 0.855 | 0.688 | 1.09 | 0.825 | 0.773 | 0.82
